Results from patent US5804601A, “Aromatic hydroxamic acid compounds, their production and use” (Takeda Chemical Industries, Ltd., priority 1995, dated 1998).

The compounds below were run on rat mixed cerebral cell culture (assay: Neutralizing effect on LPS-induced cytotoxicity in a rat mixed cerebral cell culture system (LIC assay), MTT method). Settings: concentration giving a recovery rate of 50%, usually 4-5 days incubation, read-out: ED50 (the source's name).
Assay type: cell-based
Protocol: Neutralizing effect on lipopolysaccharide (LPS)--induced cytotoxicity in a rat mixed cerebral cell culture system (LIC assay)
LPS, a substance known to activate glial cells (astrocytes, microglia), was added to a rat mixed cerebral cell culture system and the compounds which would neutralize the cytotoxicity induced by LPS were screened by the following method.
(1) Neonatal rat mixed cerebral cell culture
From neonatal Crj:CD (SD) rats (1-3 days old, Charles-River Japan, Ltd.), the brains were isolated and placed in ice-cold D-MEM/10% FCS (Dulbecco's cell culture minimal essential medium supplemented with 10% of fetal calf serum, 100 units/ml of penicillin and 100 μg/ml of streptomycin). Then, mixed cerebral cell cultures were carried out in the following steps.
1. The cerebrums were separated from the enucleated brains and the meninges was removed under the stereoscopic microscope.
2. The cerebrums were placed in a nylon-mesh (100-200 μm) bag to filter with the aid of a rubber policeman.
3. Using ice-cold D-MEM/10% FCS, the cells were washed 3 times (1000 rpm, 8 min.). Then, this cell suspension was filtered through a cell strainer (40 μm mesh, Falcon 2340) and the number of viable cells was counted by the trypan blue method.
4. The cells, were seeded in wells of a 96-well microtiter plate (Nunc) at a cell density of 1×10^5 cells/100 μl/well, and started a cell culture at 37° C.
5. One week later, 100 μl/well of D-MEM/10% FCS was added.
6. The plate was further incubated for about 1-2 weeks and the neutralizing activity of the test compound was evaluated by the following method.
(2) Evaluation of neutralizing activity in LPS-induced cytotoxicity
1. Following the rat mixed cerebral cell culture described in (1) (after 2-3 weeks of incubation), the medium was discarded from the respective wells of the 96-well microtiter plate, and 50 μl/well of fresh D-MEM/2% FCS was added.
2. A test sample and LPS (Difco, E. coli 011: B4, Bacto) of a suitable concentration, 25 μl each per well, were respectively added. D-MEM/2% FCS was used as the medium.
As the test sample, each of the compounds shown in Table 32 was dissolved in DMSO at a concentration of 10 ^-2 M and the solution was diluted with D-MEM/2% FCS and submitted for assay.
3. After a suitable period (usually 4-5 days) of incubation, the degree of cytotoxic effect was assessed by the microscopic observation, and MTT method.
(3) MTT [3-(4,5-dimethylthiazol-2-yl)-2,5-diphenyltetra zolium bromide] method
Ten μl of MTT solution (5 mg/ml, Sigma) dissolved in phosphate-buffered saline was added to each well. After 4-6 hours of incubation (37° C., under 10% CO2), 100 μl/well of 0.01N-hydrochloric acid containing 10% SDS was added, whereby the formed formazan was dissolved. After complete dissolution, the absorbance (540-590 nm) was measured for each well.
The ED50 values were determined by calculating the recovery rates by means of the following equation and plotting the concentrations of compounds giving a recovery rate of 50% on graph paper.
Recovery rate (%)=(C-B)×100/(A-B)
[A: the absorbance at 550 nm of the control well to which only the medium had been added
B: the absorbance at 550 nm of the well to which LPS had been added
C: the absorbance at 550 nm of the well to which both LPS and the test compound had been added]

Row | SMILES | EC50 [nM]
1 | O=C(CCCCCCc1ccc2ccccc2n1)NO [Compound 1-3, 7-(2-quinolyl)heptanohydroxamic acid] | 20
2 | O=C(CCCC/C=C\c1ccc2ccccc2n1)NO [Compound 1-4, (Z)-7-(2-quinolyl)-6-heptenohydroxamic acid] | 40
3 | N#CC(CCCCCC(=O)NO)c1cccc2ccccc12 (centres unmarked) [Compound 3-2, 7-Cyano-7-(1-naphthyl)heptanohydroxamic acid] | 30
4 | COc1ccc(C(CCCCC(=O)NOC(C)=O)C2=C(C)C(=O)c3ccccc3C2=O)cc1 (centres unmarked) [Compound 7-1, O-Acetyl-6-(4-methoxyphenyl)-6-(3-methyl-1,4-naphthoquinon-2-yl)hexanohydroxamic acid] | 50
5 | CC(=O)ONC(=O)CCCCCC(C1=C(C)C(=O)C(C)=C(C)C1=O)c1ccccc1 (centres unmarked) [Compound 7-2, O-acetyl-7-(3,5,6-trimethylbenzoquinon-2-yl)-7-phenylheptanohydroxamic acid] | 50
6 | CC(=O)ONC(=O)CCCCCCc1ccc2ccccc2c1O [Compound 7-3, O-acetyl-7-(1-hydroxy-2-naphthyl)heptano-hydroxamic acid] | 400
7 | CC(=O)ONC(=O)CCCCCc1ccc2ccccc2n1 [Compound 7-4, O-acetyl-6-(2-quinolyl)hexanohydroxamic acid] | 400
8 | CCC(=O)ONC(=O)CCCCCC(C1=C(C)C(=O)C(C)=C(C)C1=O)c1ccccc1 (centres unmarked) [Compound 7-5, O-propionyl-7-(3,5,6-trimethylbenzoquinon-2-yl)-7-phenylheptanohydroxamic acid] | 50
9 | CCC(=O)ONC(=O)CCCCC(C1=C(C)C(=O)c2ccccc2C1=O)c1ccc(OC)cc1 (centres unmarked) [Compound 7-6, O-propionyl-6-(4-methoxyphenyl)-6-(3-methyl-1,4-naphthoquinon-2-yl)hexanohydroxamic acid] | 50
10 | CCC(=O)ONC(=O)CCCCCc1ccc2ccccc2n1 [Compound 7-7, O-propionyl-6-(2-quinolyl)hexanohydroxamic acid] | 500
11 | CCC(=O)ONC(=O)CCCCCC(C#N)c1cccc2ccccc12 (centres unmarked) [Compound 7-8, O-propionyl-7-cyano-7-(1-naphthyl)heptanohydroxamic acid] | 30
12 | CC1=C(C)C(=O)C(C(CCCCCC(=O)NOC(=O)CC(C)C)c2ccccc2)=C(C)C1=O (centres unmarked) [Compound 7-9, O-isovaleryl-7-(3,5,6-trimethylbenzoquinon-2-yl)-7-phenylheptanohydroxamicacid] | 200
13 | COc1ccc(C(CCCCC(=O)NOC(=O)C(C)C)C2=C(C)C(=O)c3ccccc3C2=O)cc1 (centres unmarked) [Compound 7-10, O-isobutyryl-6-(4-methoxyphenyl)-6-(3-methyl-1,4-naphthoquinon-2-yl)hexanohydroxamic acid] | 300
14 | CC1=C(C)C(=O)C(C(CCCCCC(=O)NOC(=O)C(C)C)c2ccccc2)=C(C)C1=O (centres unmarked) [Compound 7-11, O-isobutyryl-7-(3,5,6-trimethylbenzoquinon-2-yl)-7-phenylheptanohydroxamicacid] | 200
15 | N#CC(CCCCCC(=O)NOC(=O)c1ccccc1)c1cccc2ccccc12 (centres unmarked) [Compound 7-12, O-benzoyl-7-cyano-7-(1-naphthyl)heptano-hydroxamic acid] | 30
16 | N#CC(CCCCC(=O)NOC(=O)c1ccccc1)c1cccc2ccccc12 (centres unmarked) [Compound 7-13, O-benzoyl-6-cyano-6-(1-naphthyl)hexanohyroxamic acid] | 50
17 | COc1ccc(C(CCCCC(=O)NOC(=O)c2ccccc2)C2=C(C)C(=O)c3ccccc3C2=O)cc1 (centres unmarked) [Compound 7-14, O-benzoyl-6-(4-me-Ehoxyphenyl)-6-(3-methyl-1,4-naphthoquinon-2-yl)hexanohydroxamic acid] | 200
18 | CC1=C(C)C(=O)C(C(CCCCCC(=O)NOC(=O)c2ccccc2)c2ccccc2)=C(C)C1=O (centres unmarked) [Compound 7-15, O-benzoyl-7-(3,5,6-trimethylbenzoquinon-2-yl)-7-phenylheptanohydroxamic acid] | 500
19 | O=C(CCCCCc1ccc2ccccc2n1)NOC(=O)c1ccccc1 [Compound 7-16, O-benzoyl-6-(2-quinolyl)hexanohydroxamic acid] | 300
20 | CC1=C(C)C(=O)C(C(CCCCCC(=O)NOC(=O)C(C)(C)C)c2ccccc2)=C(C)C1=O (centres unmarked) [Compound 7-17, O-pivaloyl-7-(3,5,6-trimethylbenzoquinon-2-yl)-7-phenylheptanohydroxamic acid] | 200
21 | CC1=C(C(CCCCC(=O)NO)c2ccc(F)cc2)C(=O)c2ccccc2C1=O (centres unmarked) [Compound B, 6-(4-Fluorophenyl)-6-(3-methyl-1,4-naphtho-quinon-2-yl)hexanohydroxamic acid] | 500
22 | CC1=C(C)C(=O)C(C(CCCCCC(=O)NO)c2ccccc2)=C(C)C1=O (centres unmarked) [Compound C, 7-(3,5,6-Trimethyl-1,4-benzoquinon-2-yl)-7-phenylheptanohydroxamic acid] | 300
23 | CC1=C(C)C(=O)C(C(CCCCCC(=O)NO)c2ccc(C)cc2)=C(C)C1=O (centres unmarked) [Compound D, 7-(3,5,6-Trimethyl-1,4-benzoquinon-2-yl)-7-(4-methylphenyl)heptanohydroxamic acid] | 100
24 | CC1=C(C)C(=O)C(C(CCCCCC(=O)NO)c2ccc(F)cc2)=C(C)C1=O (centres unmarked) [Compound E, 7-(4-Fluorophenyl)-7-(3,5,6-trimethyl-1,4-benzoquinon-2-yl)heptanohydroxamic acid] | 600
25 | O=C(CCCCCC(c1ccccc1)c1ccc2ccccc2c1O)NO (centres unmarked) [Reference Example 46-1, 7-(1-Hydroxy-2-naphthyl)-7-phenylheptanohydroxamic acid] | 50
26 | O=C(CCCCCc1ccc2ccccc2c1O)NO [Reference Example 46-2, 6-(1-Hydroxy-2-naphthyl)hexanohydroxamic acid] | 500
